Key:
[1] = target: T1, menin/MLL (terbium chelate-labeled menin, FITC-MBM1 peptide) (Homo sapiens, UniProt O00255, T541A); assay: Menin/MLL homogenous time-resolved fluorescence (HTRF) assay; type: binding; conditions: 30 min incubation
T1 construct: Menin (a.a 1-610-6xhis tag, 2.3 mg/mL in 20 mM Hepes)
T1 sequence (O00255 with tags, fused parts or gaps T541A): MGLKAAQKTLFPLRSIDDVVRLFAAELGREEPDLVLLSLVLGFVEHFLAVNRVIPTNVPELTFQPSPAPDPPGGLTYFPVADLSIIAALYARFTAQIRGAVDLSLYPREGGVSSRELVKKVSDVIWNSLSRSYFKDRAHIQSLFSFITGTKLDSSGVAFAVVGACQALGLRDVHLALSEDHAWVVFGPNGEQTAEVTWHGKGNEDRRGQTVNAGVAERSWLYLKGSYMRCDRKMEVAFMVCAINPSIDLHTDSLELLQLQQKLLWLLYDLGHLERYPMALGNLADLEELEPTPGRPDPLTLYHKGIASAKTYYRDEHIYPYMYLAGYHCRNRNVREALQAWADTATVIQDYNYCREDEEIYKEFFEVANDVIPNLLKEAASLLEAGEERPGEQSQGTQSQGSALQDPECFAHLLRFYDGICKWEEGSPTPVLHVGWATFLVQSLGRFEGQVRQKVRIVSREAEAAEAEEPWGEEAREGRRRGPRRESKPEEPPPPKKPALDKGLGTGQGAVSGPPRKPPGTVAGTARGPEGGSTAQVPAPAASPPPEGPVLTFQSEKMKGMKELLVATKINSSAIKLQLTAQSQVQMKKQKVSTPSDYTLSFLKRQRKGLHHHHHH
Summary of the method: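 Terbium-labeled menin (a.a. 1-610, His-tagged; […]) pre-incubated 30 min with compound, then 75 nM FITC-MBM1 peptide added for 15 min at ambient temperature in Tris pH 7.5 buffer, 0.5% DMSO. HTRF 520/490 nm ratio read; IC50 from 11-point four-fold titrations, typically from 10 μM.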

[2] = tested on: MEIS1 mRNA expression; assay: MEIS1 mRNA expression assay (Quantigene Singleplex) in MOLM14 cells; type: cell-based, human; conditions: 48 hours incubation
Summary of the method: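 MOLM14 cells, 3,750/well, exposed to increasing compound concentrations for 48 h. MEIS1 mRNA measured by QuantiGene Singleplex branched-DNA hybridization (lysis 45 min, hybridization 18–22 h, both 55 °C), normalized to RPL28. IC50 fitted to background-corrected fold change versus DMSO.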

| IC50 [1] | IC50 ([2]; Homo sapiens, MOLM-14, 48 h) | IC50 [2] | Structure (SMILES) |
| --- | --- | --- | --- |
| 0.301 nM | 247 nM | – | COCCN(C)CCC[C@H](C(C)C)N1CC[C@H](Cc2cn(-c3ccc(F)cc3C(=O)N(C)C(C)C)c3cncc(Cl)c23)C1 (single isomer, unassigned) [Compound 4a] |
| 0.094 nM | 6 nM | – | COCCN(C)CCC[C@@H](C(C)C)N1CC[C@H](Cc2cn(-c3ccc(F)cc3C(=O)N(C)C(C)C)c3cncc(Cl)c23)C1 (single isomer, unassigned) [Compound 4b] |
| 0.016 nM | 6 nM | – | CC(=O)N1CCN(CCCC(C(C)C)N2CCC(Cc3cn(-c4ccc(F)cc4C(=O)N(C)C(C)C)c4cncc(C)c34)C2)CC1 (single isomer, unassigned) [Compound 9a] |
| 0.032 nM | < 3.3 nM | – | CC(=O)N1C[C@@H]2CN(CCC[C@H](C(C)C)N3CC[C@H](Cc4cn(-c5ccc(F)cc5C(=O)N(C)C(C)C)c5cncc(Cl)c45)C3)C[C@H]2C1 (single isomer, unassigned) [Compound 19a] |
| 0.07 nM | – | 132 nM | CN=S(=O)(c1cc(F)ccc1-n1cc(CC2CCN(CC3CCOCC3)C2)c2c(C)cncc21)C(C)C (single isomer, unassigned) [Compound 77b] |
| 0.208 nM | – | ~260 nM | CN=S(=O)(c1cc(F)ccc1-n1cc(CC2CCN(CC3CCOCC3)C2)c2c(C)cncc21)C(C)C (single isomer, unassigned) [Compound 77d] |

Continued, compound first:

| Structure (SMILES) | IC50 [1] | IC50 ([2]; Homo sapiens, MOLM-14, 48 h) | IC50 [2] |
| --- | --- | --- | --- |
| CC(=O)N1CCN(CCCC(C(C)C)N2CC[C@@H](Cc3cn(-c4ccc(F)cc4C(=O)N(C)C(C)C)c4cncc(C)c34)C2)CC1 (mixture of isomers) [Compound 8] | 0.365 nM | 23 nM | – |
| CC(=O)N1CCN(CCCC(C(C)C)N2CC[C@H](Cc3cn(-c4ccc(F)cc4C(=O)N(C)C(C)C)c4cncc(C)c34)C2)CC1 (mixture of isomers) [Compound 9] | 0.138 nM | 23 nM | – |
| CC(=O)N1C[C@@H]2CN([C@H]3C[C@@H](C(C(C)C)N4CC[C@H](Cc5cn(-c6ccc(F)cc6C(=O)N(C)C(C)C)c6cncc(C)c56)C4)C3)C[C@H]2C1 (mixture of isomers) [Compound 21] | 0.052 nM | < 2.3 nM | – |
| CCC([C@H]1C[C@@H](N2CCN(C(C)=O)CC2)C1)N1CC[C@@H](Cc2cn(-c3ccc(F)cc3C(=O)N(C)C(C)C)c3cncc(C)c23)C1 (mixture of isomers) [Compound 24] | 0.057 nM | 71 nM | – |
| Cc1cncc2c1c(C[C@@H]1CCN(CC3CCOCC3)C1)cn2-c1ccc(F)cc1S(=N)(=O)C(C)C (mixture of isomers) [Compound 78] | 0.299 nM | 327 nM | – |
| Cc1cncc2c1c(C[C@@H]1CCN(CC3CCNC(=O)CC3)C1)cn2-c1ccc(F)cc1C(=O)N(C)C(C)C (mixture of isomers) [Compound 169] | 0.061 nM | 71 nM | – |
| Cc1cncc2c1c(C[C@@H]1CCN(CC3CCNC(=O)C3)C1)cn2-c1ccc(F)cc1C(=O)N(C)C(C)C (mixture of isomers) [Compound 212] | 0.115 nM | 322 nM | – |
| COCCN(C)CCCC(C(C)C)N1CC[C@H](Cc2cn(-c3ccc(F)cc3C(=O)N(C)C(C)C)c3cncc(C)c23)C1 (single isomer, unassigned) [Compound 2] | 0.049 nM | 3 nM | – |
| CC(=O)N1CCC(N2CC[C@H](Cc3cn(-c4ccc(F)cc4C(=O)N(C)C(C)C)c4cncc(C)c34)C2)CC1 (single isomer, unassigned) [Compound 81] | 0.425 nM | – | 77 nM |
| Cc1cncc2c1c(CC1CCN(CC3CCN(C(=O)[C@@H](C)O)CC3)C1)cn2-c1ccc(F)cc1C(=O)N(C)C(C)C (single isomer, unassigned) [Compound 85] | 0.113 nM | 22 nM | – |
| Cc1cncc2c1c(CC1CCN(CC3CCN(C(=O)[C@H](C)O)CC3)C1)cn2-c1ccc(F)cc1C(=O)N(C)C(C)C (single isomer, unassigned) [Compound 86] | 0.042 nM | 21 nM | – |

Source: patent US20230250096A1, “SUBSTITUTED PHENYL-1H-PYRROLO[2,3-c] PYRIDINE DERIVATIVES” (Janssen Pharmaceutica NV, priority 2021, published 2023)
